Columns and labels:
Homo sapiens = organism: Homo sapiens; experiment: Selectivity index, ratio of IC50 for purified recombinant VEGFR2 kinase domain (unknown origin) to IC50 for purified recombinant MET kinase domain (unknown origin)
[1] = target: Tyrosine-protein kinase receptor UFO (Homo sapiens, UniProt P30530); experiment: Inhibition of recombinant […] human N-terminal GST-tagged AXL (473 to end residues) expressed in baculovirus infected Sf21 insect cells using biotin as substrate preincubated for 5 mins followed by substrate addition and measured after 30 to 60 mins in presence of ATP by HTRF assay
[2] = target: Vascular endothelial growth factor receptor 3 (Homo sapiens, UniProt P35916); experiment: (§1) Inhibition of recombinant human GST-tagged FLT4 catalytic domain (800 to 1297 residues) expressed in baculovirus expression system using biotin as substrate preincubated for 5 mins followed by substrate addition and measured after 30 to 60 mins in presence of ATP by HTRF assay
[3] = target: T1, Macrophage-stimulating protein receptor (Homo sapiens, UniProt Q04912); experiment: Inhibition of recombinant human GST-tagged RON expressed in baculovirus system using biotin as substrate preincubated for 5 mins followed by substrate addition and measured after 30 to 60 mins in presence of ATP by HTRF assay
[4] = target: BDNF/NT-3 growth factors receptor (Homo sapiens, UniProt Q16620); experiment: Inhibition of recombinant human His-tagged TRKB catalytic domain (526 to 838 residues) expressed in baculovirus expression system using biotin as substrate preincubated for 5 mins followed by substrate addition and measured after 30 to 60 mins in presence of ATP by HTRF assay
[5] = Antiproliferative activity against human NIH-H460 cells at 10 uM incubated for 72 hrs by MTT assay relative to control; type: functional; conditions: NIH-H460, 72 h
HT-29 = experiment: Antiproliferative activity against human HT-29 cells at 10 uM incubated for 72 hrs by MTT assay relative to control; type: functional; conditions: HT-29, 72 h
MKN-45 = experiment: Antiproliferative activity against human MKN45 cells at 10 uM incubated for 72 hrs by MTT assay relative to control; type: functional; conditions: MKN-45, 72 h
[6] = Half life in Sprague-Dawley rat at 1.0 mg/kg, iv measured for 5 min to 72 hrs by LC-MS/MS analysis; type: ADME, organism-based; conditions: in vivo
[7] = target: Tyrosine-protein kinase Mer (Homo sapiens) (UniProt Q12866); experiment: Inhibition of recombinant human GST-tagged cMER (578 to 872 residues) expressed in baculovirus infected Sf21 insect cells at 1 uM using biotin as substrate preincubated for 5 mins followed by substrate addition and measured after 30 to 60 mins in presence of ATP by HTRF assay relative to control
[8] = target: Tyrosine-protein kinase receptor TYRO3 (Homo sapiens) (UniProt Q06418); experiment: as §1, with “RSE” for “FLT4”, “(451” for “(800”, “890” for “1297”, “system at 1 uM” for “system”, “assay relative to control” for “assay”
[9] = target: Ephrin type-B receptor 4 (Homo sapiens) (UniProt P54760); experiment: Inhibition of recombinant full length human His-tagged EPHB4 expressed in baculovirus expression system at 1 uM using biotin as substrate preincubated for 5 mins followed by substrate addition and measured after 30 to 60 mins in presence of ATP by HTRF assay relative to control
[10] = target: T1, Macrophage-stimulating protein receptor; experiment: Inhibition of recombinant human GST-tagged RON expressed in baculovirus system at 1 uM using biotin as substrate preincubated for 5 mins followed by substrate addition and measured after 30 to 60 mins in presence of ATP by HTRF assay relative to control
Angiopoietin-1 receptor = Angiopoietin-1 receptor (Homo sapiens, UniProt Q02763); experiment: (§2) Inhibition of recombinant human GST-tagged TEK (817 to 1101 residues) expressed in baculovirus expression system at 1 uM using biotin as substrate preincubated for 5 mins followed by substrate addition and measured after 30 to 60 mins in presence of ATP by HTRF assay relative to control
[11] = target: ALK tyrosine kinase receptor (Homo sapiens) (UniProt Q9UM73); experiment: Inhibition of human GST-tagged ALK cytoplasmic domain (1060 to end residues) expressed in sf9 cells at 1 uM using biotin as substrate preincubated for 5 mins followed by substrate addition and measured after 30 to 60 mins in presence of ATP by HTRF assay relative to control
[12] = target: Aurora kinase A (Homo sapiens) (UniProt O14965); experiment: Inhibition of recombinant full length human His-tagged Aurora A expressed in baculovirus expression system at 1 uM using biotin as substrate preincubated for 5 mins followed by substrate addition and measured after 30 to 60 mins in presence of ATP by HTRF assay relative to control
[13] = target: Aurora kinase B (Homo sapiens) (UniProt Q96GD4); experiment: Inhibition of recombinant full length human His-tagged Aurora B expressed in baculovirus expression system at 1 uM using biotin as substrate preincubated for 5 mins followed by substrate addition and measured after 30 to 60 mins in presence of ATP by HTRF assay relative to control
[14] = target: Tyrosine-protein kinase CSK (Homo sapiens) (UniProt P41240); experiment: Inhibition of recombinant full length human His-tagged CSK at 1 uM using biotin as substrate preincubated for 5 mins followed by substrate addition and measured after 30 to 60 mins in presence of ATP by HTRF assay relative to control
[15] = target: Tyrosine-protein kinase Lyn (Homo sapiens) (UniProt P07948); experiment: Inhibition of recombinant full length human GST-tagged LYN B expressed in baculovirus expression system at 1 uM using biotin as substrate preincubated for 5 mins followed by substrate addition and measured after 30 to 60 mins in presence of ATP by HTRF assay relative to control
[16] = target: Mitogen-activated protein kinase 9 (Homo sapiens) (UniProt P45984); experiment: Inhibition of recombinant full length human His-tagged MAPK9 expressed in baculovirus expression system at 1 uM using biotin as substrate preincubated for 5 mins followed by substrate addition and measured after 30 to 60 mins in presence of ATP by HTRF assay relative to control
[17] = target: Proto-oncogene tyrosine-protein kinase ROS (Homo sapiens) (UniProt P08922); experiment: as §2, with “ROS1 catalytic domain (1883” for “TEK (817”, “2347” for “1101”
[18] = target: Ribosomal protein S6 kinase alpha-5 (Homo sapiens) (UniProt O75582); experiment: Inhibition of recombinant full length human GST-tagged RPS6KA5 expressed in baculovirus expression system at 1 uM using biotin as substrate preincubated for 5 mins followed by substrate addition and measured after 30 to 60 mins in presence of ATP by HTRF assay relative to control
[19] = target: Serine/threonine-protein kinase TBK1 (Homo sapiens) (UniProt Q9UHD2); experiment: Inhibition of recombinant full length human GST-tagged TBK1 expressed in insect cells at 1 uM using biotin as substrate preincubated for 5 mins followed by substrate addition and measured after 30 to 60 mins in presence of ATP by HTRF assay relative to control
Sequence of Serine/threonine-protein kinase TBK1 (Homo sapiens) (Q9UHD2 whole entry): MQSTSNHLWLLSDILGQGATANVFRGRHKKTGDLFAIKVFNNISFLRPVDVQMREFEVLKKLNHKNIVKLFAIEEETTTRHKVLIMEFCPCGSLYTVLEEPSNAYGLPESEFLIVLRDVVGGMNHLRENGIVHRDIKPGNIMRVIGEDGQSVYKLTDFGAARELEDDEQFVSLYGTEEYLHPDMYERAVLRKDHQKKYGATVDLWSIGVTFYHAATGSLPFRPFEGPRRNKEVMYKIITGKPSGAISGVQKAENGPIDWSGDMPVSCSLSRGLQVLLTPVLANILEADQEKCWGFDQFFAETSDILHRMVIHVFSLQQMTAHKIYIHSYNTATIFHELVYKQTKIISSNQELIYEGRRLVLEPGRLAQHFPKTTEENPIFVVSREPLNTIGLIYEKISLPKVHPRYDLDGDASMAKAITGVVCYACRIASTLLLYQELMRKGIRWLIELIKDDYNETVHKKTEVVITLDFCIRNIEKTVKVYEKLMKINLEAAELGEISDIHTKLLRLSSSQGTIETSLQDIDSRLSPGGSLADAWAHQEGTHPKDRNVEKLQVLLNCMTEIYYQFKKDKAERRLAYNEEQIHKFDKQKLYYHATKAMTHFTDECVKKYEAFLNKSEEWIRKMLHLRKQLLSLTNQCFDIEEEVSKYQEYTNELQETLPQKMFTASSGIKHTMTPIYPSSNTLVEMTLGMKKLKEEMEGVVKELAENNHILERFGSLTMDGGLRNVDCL

T1 sequence (Q04912 25-304 limits assumed): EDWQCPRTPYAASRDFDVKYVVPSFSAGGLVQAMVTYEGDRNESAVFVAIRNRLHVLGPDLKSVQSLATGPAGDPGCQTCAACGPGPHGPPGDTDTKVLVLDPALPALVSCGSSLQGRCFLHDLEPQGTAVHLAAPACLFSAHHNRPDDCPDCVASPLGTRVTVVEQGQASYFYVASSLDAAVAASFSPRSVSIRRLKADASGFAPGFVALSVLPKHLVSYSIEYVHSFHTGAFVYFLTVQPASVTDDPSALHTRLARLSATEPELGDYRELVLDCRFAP
T1 sequence (Q04912 310-1400 limits assumed): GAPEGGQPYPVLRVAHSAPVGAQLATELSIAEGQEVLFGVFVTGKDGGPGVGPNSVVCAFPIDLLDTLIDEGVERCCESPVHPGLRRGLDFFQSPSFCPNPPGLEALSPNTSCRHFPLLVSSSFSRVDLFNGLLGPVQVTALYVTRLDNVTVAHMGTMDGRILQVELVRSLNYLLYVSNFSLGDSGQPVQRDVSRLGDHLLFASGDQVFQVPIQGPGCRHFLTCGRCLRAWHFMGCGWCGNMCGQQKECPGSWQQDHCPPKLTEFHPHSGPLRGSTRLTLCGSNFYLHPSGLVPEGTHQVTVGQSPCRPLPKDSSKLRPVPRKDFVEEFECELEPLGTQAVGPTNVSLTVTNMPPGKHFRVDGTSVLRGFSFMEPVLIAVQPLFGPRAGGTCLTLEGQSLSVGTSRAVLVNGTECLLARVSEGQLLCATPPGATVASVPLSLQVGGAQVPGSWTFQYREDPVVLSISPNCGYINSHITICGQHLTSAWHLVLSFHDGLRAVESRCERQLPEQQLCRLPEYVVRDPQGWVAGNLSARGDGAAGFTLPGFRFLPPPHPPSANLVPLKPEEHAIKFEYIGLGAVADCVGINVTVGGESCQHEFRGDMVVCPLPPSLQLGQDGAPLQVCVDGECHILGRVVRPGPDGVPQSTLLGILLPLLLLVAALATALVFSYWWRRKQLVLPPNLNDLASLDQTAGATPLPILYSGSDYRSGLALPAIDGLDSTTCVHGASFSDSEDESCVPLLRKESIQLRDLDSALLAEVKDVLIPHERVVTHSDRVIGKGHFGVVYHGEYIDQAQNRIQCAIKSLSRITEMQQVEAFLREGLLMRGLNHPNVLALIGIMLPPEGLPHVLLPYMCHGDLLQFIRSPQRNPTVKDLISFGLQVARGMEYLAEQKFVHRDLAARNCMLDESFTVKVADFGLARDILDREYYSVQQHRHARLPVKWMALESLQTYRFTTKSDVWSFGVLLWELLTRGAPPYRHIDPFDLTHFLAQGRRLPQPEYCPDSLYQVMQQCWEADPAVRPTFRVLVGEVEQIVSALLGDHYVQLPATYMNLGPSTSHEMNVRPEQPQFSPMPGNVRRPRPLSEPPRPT
Sequence of Angiopoietin-1 receptor (Q02763 whole entry, the tested form may be a part): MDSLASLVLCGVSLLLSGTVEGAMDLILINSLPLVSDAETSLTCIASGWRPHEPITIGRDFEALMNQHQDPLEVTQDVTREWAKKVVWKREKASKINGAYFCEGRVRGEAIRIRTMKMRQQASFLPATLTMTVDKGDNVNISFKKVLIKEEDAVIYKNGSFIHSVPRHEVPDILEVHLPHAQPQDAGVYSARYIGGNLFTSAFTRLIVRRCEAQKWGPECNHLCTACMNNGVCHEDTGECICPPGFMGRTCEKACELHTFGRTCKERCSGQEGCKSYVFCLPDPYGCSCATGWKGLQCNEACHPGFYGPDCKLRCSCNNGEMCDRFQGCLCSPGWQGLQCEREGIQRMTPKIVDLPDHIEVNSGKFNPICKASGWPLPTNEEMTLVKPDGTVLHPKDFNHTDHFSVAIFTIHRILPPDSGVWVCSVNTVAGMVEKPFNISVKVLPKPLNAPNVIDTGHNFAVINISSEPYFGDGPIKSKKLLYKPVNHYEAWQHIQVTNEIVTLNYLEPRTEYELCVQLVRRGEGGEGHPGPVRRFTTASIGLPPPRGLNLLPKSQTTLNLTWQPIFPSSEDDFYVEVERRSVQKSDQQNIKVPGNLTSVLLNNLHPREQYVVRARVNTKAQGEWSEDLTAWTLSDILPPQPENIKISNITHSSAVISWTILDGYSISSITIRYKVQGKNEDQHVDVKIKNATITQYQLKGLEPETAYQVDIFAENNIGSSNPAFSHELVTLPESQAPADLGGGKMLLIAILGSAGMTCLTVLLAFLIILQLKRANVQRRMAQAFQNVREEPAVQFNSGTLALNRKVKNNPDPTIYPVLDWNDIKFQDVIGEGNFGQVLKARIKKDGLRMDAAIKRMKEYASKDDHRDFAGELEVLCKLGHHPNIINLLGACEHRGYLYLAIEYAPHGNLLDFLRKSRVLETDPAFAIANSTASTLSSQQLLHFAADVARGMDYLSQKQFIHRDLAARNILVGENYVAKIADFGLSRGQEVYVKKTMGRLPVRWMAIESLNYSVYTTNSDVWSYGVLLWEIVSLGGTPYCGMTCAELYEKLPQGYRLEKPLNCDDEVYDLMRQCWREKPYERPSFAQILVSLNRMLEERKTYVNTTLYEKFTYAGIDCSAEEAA
Sequence of Tyrosine-protein kinase Mer (Homo sapiens) (Q12866 whole entry, the tested form may be a part): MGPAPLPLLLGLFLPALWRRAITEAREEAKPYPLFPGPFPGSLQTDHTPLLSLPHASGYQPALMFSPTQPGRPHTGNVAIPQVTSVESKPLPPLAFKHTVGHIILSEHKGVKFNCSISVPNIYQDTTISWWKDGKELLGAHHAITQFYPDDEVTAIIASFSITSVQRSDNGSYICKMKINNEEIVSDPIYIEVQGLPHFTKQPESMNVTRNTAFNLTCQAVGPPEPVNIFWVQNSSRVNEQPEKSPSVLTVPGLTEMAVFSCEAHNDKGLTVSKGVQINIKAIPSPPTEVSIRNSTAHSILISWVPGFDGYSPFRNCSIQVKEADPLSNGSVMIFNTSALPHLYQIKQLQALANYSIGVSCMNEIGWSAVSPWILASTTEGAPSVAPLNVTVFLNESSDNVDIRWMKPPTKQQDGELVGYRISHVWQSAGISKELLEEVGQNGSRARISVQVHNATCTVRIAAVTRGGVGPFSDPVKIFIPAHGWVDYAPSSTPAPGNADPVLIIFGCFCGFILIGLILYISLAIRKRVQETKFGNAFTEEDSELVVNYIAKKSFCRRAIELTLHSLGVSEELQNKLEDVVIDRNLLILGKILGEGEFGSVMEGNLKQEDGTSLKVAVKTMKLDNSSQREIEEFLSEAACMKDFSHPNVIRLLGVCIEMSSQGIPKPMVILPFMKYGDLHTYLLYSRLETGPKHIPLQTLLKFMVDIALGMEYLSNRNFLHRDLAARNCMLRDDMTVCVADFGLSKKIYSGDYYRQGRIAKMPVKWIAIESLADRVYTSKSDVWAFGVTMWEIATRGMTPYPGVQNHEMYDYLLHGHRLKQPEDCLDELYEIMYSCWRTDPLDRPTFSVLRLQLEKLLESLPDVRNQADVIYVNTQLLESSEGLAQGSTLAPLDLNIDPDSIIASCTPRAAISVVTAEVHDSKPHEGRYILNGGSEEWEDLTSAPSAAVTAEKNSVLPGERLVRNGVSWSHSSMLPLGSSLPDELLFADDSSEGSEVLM
Sequence of BDNF/NT-3 growth factors receptor (Q16620 whole entry, the tested form may be a part): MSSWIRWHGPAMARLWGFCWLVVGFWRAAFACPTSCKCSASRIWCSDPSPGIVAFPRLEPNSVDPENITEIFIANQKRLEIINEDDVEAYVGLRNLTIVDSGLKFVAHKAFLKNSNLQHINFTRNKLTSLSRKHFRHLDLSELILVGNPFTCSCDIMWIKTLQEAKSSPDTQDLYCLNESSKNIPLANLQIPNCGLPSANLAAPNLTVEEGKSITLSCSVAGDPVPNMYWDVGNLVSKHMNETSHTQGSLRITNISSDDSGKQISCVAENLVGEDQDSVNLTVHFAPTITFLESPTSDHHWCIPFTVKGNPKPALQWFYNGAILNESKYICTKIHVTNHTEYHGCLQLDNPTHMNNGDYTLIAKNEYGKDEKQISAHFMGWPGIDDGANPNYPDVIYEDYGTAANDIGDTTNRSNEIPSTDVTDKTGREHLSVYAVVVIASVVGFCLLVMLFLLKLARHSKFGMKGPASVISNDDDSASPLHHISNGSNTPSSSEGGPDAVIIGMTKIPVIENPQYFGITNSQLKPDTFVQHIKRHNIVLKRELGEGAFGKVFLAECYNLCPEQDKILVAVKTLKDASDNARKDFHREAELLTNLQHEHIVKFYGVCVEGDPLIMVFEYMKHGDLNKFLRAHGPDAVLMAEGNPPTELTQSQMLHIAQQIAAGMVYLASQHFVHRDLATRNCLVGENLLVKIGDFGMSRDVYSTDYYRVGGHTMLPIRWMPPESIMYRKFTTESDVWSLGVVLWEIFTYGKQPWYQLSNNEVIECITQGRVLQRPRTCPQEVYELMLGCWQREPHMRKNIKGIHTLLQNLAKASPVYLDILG

Question: What does the source list for Cn1cc(-c2ccc(F)cc2)c(=O)c2c(Nc3ccc(Oc4ccnc(NC(=O)C5CC5)c4)c(F)c3)nccc21?
Answer: Ratio IC50 (Homo sapiens): 3230; IC50 [1]: 8.2 nM; IC50 [2]: 591 nM; IC50 [3]: 346 nM; IC50 [4]: 58.8 nM; inhibition at 10 µM [5]: 15.6%; inhibition at 10 µM (HT-29): 24.8%; inhibition at 10 µM (MKN-45): 30.9%; half-life [6]: 25.4 h; inhibition [7]: > 80%; inhibition [8]: > 80%; inhibition [9]: 50 to 79%; inhibition [10]: 50 to 79%; inhibition (Angiopoietin-1 receptor): 50 to 79%; inhibition [11]: < 50%; inhibition [12]: < 50%; inhibition [13]: < 50%; inhibition [14]: < 50%; inhibition [15]: < 50%; inhibition [16]: < 50%; inhibition [17]: < 50%; inhibition [18]: < 50%; inhibition [19]: < 50%

Reference: ChEMBL document CHEMBL4373740, “Synthesis and biological evaluation of new MET inhibitors with 1,6-naphthyridinone scaffold” (Eur J Med Chem, 2020)
